This note sets out measurements from US20250221988A1 (Cullgen (Shanghai), Inc., priority 2022, published 2025).

Holding throughout (assay type): cell-based
One assay deals with MV4;11 cells. Briefly: Cell viability assay (CellTiter-Glo) in MV4;11 cells. The settings on record: read-out: MV4; for pIC50: compound alone, 11 IC50. In short, it runs like this: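 5000 cells/well in RPMI 1640 or DMEM with 10% FBS, treated with 8- or 12-point 3-fold compound dilutions, with or without gilteritinib (10 nM for MV4;11, 20 nM for MOLM-13). Viability by CellTiter-Glo after three days; IC50 by nonlinear least-squares regression.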

Another assay relates to MOLM-13 cells. Briefly: Cell viability assay (CellTiter-Glo) in MOLM-13 cells. The note with it: for pIC50: 72 h, compound alone, read-out: MOLM-13 IC50. A general note: In ATP-based viability assays light output follows the ATP content of the culture.
Another assay deals with GSPT1 (Homo sapiens, UniProt P15170+Q96SW2). The experiment in a line: Immunoblotting of GSPT1 in MOLM-13 cells. The note with it: indicated concentrations, 16 hours. Details: endogenous in cells; host or cells: MOLM-13. As to the method:
Cell Culture: RS4;11, MV4;11, MOLM-13 and other cells were cultured at 37° C. with 5% CO2 in RPMI 1640 or DMEM Medium supplemented with 10% fetal bovine serum. Cells were authenticated using the short tandem repeat (STR) assays. Mycoplasma test results were negative.
Antibodies and reagents: Rabbit anti-FLT3 antibody (3462S) was purchased from Cell Signaling Technology. Rabbit anti-GSPT1 antibody (ab126090) was purchased from Abeam. HRP-conjugated anti-α-tubulin antibody was produced in house. Media and other cell culture reagents were purchased from Thermo Fisher. The CellTiter-Glo Luminescent Assay kit was purchased from Promega.
Immunoblotting: Cultured cells were washed with cold PBS once and lysed in cold RIPA buffer supplemented with protease inhibitors and phosphatase inhibitors (Beyotime Biotechnology). The solutions were then incubated at 4° C. for 30 minutes with gentle agitation to fully lyse cells. Cell lysates were centrifuged at 13,000 rpm for 10 minutes at 4° C. and pellets were discarded. Total protein concentrations in the lysates were determined by BCA assays (Beyotime Biotechnology). Cell lysates were mixed with Laemmli loading buffer to 1× and heated at 99° C. for 5 min. Proteins were resolved on SDS-PAGE and visualized by chemiluminescence. Images were taken by a ChemiDoc MP Imaging system (Bio-Rad). Protein bands were quantitated using the accompanied software provided by Bio-Rad.

Where [1] appears, read: Homo sapiens, MV4-11, 72 h, MV4;11 cells, three days.
The mark [2] stands for this setting: MV4;11 cells, with 10 nM gilteritinib, three days, 11 IC50 (nM) + 10 nM Gil.
Setting [3] is: Homo sapiens, MOLM-13 cells, three days.
[4] abbreviates: MOLM-13 cells, with gilteritinib, three days, read-out: MOLM-13 IC50 (nM) + 10 nM Gil.

Structures are written as SMILES. pIC50: −log10 of the molar value. Where two headings read alike, the source gives them in different places. Bounds are passed on as bounds.

Sequence of GSPT1 (P15170 whole entry): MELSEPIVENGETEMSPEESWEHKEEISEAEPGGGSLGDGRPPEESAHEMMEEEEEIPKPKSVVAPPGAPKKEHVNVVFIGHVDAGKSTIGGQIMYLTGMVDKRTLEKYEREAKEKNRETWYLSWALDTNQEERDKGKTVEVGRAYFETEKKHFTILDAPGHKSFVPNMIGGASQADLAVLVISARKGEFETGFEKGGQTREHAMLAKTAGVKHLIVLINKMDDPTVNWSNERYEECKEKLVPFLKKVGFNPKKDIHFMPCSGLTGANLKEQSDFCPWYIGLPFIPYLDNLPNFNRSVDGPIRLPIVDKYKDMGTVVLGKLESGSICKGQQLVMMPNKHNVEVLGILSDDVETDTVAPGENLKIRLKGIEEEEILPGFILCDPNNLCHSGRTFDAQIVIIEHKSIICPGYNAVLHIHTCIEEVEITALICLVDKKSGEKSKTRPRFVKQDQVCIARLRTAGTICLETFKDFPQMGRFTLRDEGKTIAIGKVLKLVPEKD
Sequence of GSPT1 (Q96SW2 whole entry): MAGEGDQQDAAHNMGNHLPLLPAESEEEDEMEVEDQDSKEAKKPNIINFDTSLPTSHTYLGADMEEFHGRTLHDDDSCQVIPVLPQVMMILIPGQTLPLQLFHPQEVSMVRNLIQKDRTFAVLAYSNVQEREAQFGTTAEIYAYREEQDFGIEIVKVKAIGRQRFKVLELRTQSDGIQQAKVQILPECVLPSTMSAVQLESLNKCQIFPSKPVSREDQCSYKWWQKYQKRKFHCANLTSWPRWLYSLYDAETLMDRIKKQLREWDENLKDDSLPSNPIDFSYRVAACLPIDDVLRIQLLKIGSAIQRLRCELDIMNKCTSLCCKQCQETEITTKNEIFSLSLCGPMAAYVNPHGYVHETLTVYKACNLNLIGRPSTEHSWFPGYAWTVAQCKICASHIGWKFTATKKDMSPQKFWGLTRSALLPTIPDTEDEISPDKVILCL
Sequence of GSPT1 (Q16531 whole entry partner): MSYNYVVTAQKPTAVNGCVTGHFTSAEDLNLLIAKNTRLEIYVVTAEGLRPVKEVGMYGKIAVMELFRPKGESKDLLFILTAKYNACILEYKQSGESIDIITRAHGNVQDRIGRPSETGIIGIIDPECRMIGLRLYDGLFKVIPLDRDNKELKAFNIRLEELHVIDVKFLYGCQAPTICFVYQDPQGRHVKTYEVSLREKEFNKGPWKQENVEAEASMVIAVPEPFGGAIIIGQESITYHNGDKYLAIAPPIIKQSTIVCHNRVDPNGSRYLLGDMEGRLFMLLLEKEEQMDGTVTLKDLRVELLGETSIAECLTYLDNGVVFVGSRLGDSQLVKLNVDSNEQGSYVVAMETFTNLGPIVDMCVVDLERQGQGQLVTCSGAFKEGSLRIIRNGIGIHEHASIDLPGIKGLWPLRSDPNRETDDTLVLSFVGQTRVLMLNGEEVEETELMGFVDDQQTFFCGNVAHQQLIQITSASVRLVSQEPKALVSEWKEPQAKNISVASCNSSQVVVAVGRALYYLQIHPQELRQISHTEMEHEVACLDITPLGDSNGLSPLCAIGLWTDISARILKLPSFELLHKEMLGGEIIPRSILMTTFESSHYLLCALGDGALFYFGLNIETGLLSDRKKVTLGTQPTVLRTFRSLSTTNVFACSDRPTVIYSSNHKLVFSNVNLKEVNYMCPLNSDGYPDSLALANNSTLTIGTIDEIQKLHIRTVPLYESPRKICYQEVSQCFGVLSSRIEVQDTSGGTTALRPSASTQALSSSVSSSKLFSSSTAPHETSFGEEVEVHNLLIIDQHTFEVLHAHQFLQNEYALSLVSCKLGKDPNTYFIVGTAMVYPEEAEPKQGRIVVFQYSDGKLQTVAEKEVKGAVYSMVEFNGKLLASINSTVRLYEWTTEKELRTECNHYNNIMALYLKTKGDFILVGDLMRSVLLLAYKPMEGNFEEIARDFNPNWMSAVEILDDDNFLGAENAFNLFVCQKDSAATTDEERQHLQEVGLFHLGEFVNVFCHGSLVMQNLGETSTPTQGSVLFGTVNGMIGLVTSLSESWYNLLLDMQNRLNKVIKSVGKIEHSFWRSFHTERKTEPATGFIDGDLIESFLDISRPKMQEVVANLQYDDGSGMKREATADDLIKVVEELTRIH

With `O=C1CCC(N2C(=O)c3ccc(NC[C@H]4C[C@H](n5cc(-c6ncc(F)c7cccnc67)c(C6CC6)n5)C4)cc3C2=O)C(=O)N1` (stereo partly drawn) [GS-697, 5-(((Trans-3-(3-cyclopropyl-4-(5-fluoro-1,7-naphthyridin-8-yl)-1H-pyrazol-1-yl)cyclobutyl)methyl)amino)-2-(2,6-dioxopiperidin-3-yl)isoindoline-1,3-dione], the pIC50 in the assay with MV4;11 cells (setting [1]) and with MOLM-13 cells (setting [3]) was greater than 8.00 each time. The IC50 with MV4;11 cells (setting [2]) and in the assay with MOLM-13 cells (setting [4]) was less than 10 nM each time. Moreover, the “small molecule-mediated targeted degradation of GSPT1” value at GSPT1 is “targeted degradation of GSPT1”.

Consider `Cn1ncc2ccc(-c3cn([C@H]4C[C@H](CNc5ccc6c(c5)C(=O)N(C5CCC(=O)NC5=O)C6=O)C4)nc3C3CC3)nc21` (stereo partly drawn) [GS-729, 5-(((Trans-3-(3-cyclopropyl-4-(1-methyl-1H-pyrazolo[3,4-b]pyridin-6-yl)-1H-pyrazol-1-yl)cyclobutyl)methyl)amino)-2-(2,6-dioxopiperidin-3-yl)isoindoline-1,3-dione], for which the pIC50 in the assay with MV4;11 cells (setting [1]) and in the assay on MOLM-13 cells (setting [3]) was 7.00 to 8.00 throughout. Further, the IC50 in the assay on MV4;11 cells (setting [2]) and in the assay on MOLM-13 cells (setting [4]) was less than 10 nM in each case. Moreover, the “small molecule-mediated targeted degradation of GSPT1” value at GSPT1 is listed as “targeted degradation of GSPT1”.

Consider `Cc1nc(-c2cn([C@H]3C[C@H](CNc4ccc5c(c4)CN(C4CCC(=O)NC4=O)C5=O)C3)nc2C2CC2)ccc1F` (stereo partly drawn) [GS-731, 3-(5-(((Trans-3-(3-cyclopropyl-4-(5-fluoro-6-methylpyridin-2-yl)-1H-pyrazol-1-yl)cyclobutyl)methyl)amino)-1-oxoisoindolin-2-yl)piperidine-2,6-dione], for which the results for the pIC50 in the assay with MV4;11 cells (setting [1]) and in the assay on MOLM-13 cells (setting [3]) were greater than 8.00 and 7.00 to 8.00, respectively. In addition, the IC50 with MV4;11 cells (setting [2]) and in the assay on MOLM-13 cells (setting [4]) was less than 10 nM in each case. The “small molecule-mediated targeted degradation of GSPT1” value at GSPT1 is recorded as “targeted degradation of GSPT1”.

As for `O=C1CCC(N2C(=O)c3ccc(NC[C@H]4C[C@H](n5cc(-c6ccc7c(n6)C(O)CC7)c(C6CC6)n5)C4)cc3C2=O)C(=O)N1` (stereo partly drawn) [GS-780, 5-(((Trans-3-(3-cyclopropyl-4-(7-hydroxy-6,7-dihydro-5H-cyclopenta[b]pyridin-2-yl)-1H-pyrazol-1-yl)cyclobutyl)methyl)amino)-2-(2,6-dioxopiperidin-3-yl)isoindoline-1,3-dione], the pIC50 with MV4;11 cells (setting [1]) and in the assay with MOLM-13 cells (setting [3]) was 7.00 to 8.00 in each case. For the same molecule, the IC50 in the assay with MV4;11 cells (setting [2]) and in the assay with MOLM-13 cells (setting [4]) was less than 10 nM each time.

Take `Cn1ncc2cncc(-c3cn([C@H]4C[C@H](CNc5ccc6c(c5)C(=O)N(C5CCC(=O)NC5=O)C6=O)C4)nc3C3CC3)c21` (stereo partly drawn) [GS-781, 5-(((Trans-3-(3-cyclopropyl-4-(1-methyl-1H-pyrazolo[4,3-c]pyridin-7-yl)-1H-pyrazol-1-yl)cyclobutyl)methyl)amino)-2-(2,6-dioxopiperidin-3-yl)isoindoline-1,3-dione]: the pIC50 with MV4;11 cells (setting [1]) is 7.00 to 8.00; in the assay on MOLM-13 cells (setting [3]), 6.00 to 7.00. The IC50 in the assay with MV4;11 cells (setting [2]) is less than 10 nM; with MOLM-13 cells (setting [4]), 10 to 100 nM.

In the case of `O=C1CCC(N2C(=O)c3ccc(NC[C@H]4C[C@H](n5cc(-c6cc7c(cn6)cnn7[C@H]6CC[C@@H](O)CC6)c(C6CC6)n5)C4)cc3C2=O)C(=O)N1` (some centres unmarked) [GS-782], the pIC50 was greater than 8.00 with MV4;11 cells (setting [1]) and 7.00 to 8.00 with MOLM-13 cells (setting [3]). The IC50 in the assay on MV4;11 cells (setting [2]) and in the assay on MOLM-13 cells (setting [4]) was less than 10 nM each time.

Turning to `O=C1CCC(N2C(=O)c3ccc(NCCC4CC5(C4)CC(n4nc(C6CC6)c6ccccc64)C5)cc3C2=O)C(=O)N1` (centres unmarked) [GS-783, 5-((2-(6-(3-Cyclopropyl-1H-indazol-1-yl)spiro[3.3]heptan-2-yl)ethyl)amino)-2-(2,6-dioxopiperidin-3-yl)isoindoline-1,3-dione], the pIC50 in the assay on MV4;11 cells (setting [1]) and in the assay on MOLM-13 cells (setting [3]) was 7.00 to 8.00 each time. Also, the IC50 in the assay on MV4;11 cells (setting [2]) and in the assay on MOLM-13 cells (setting [4]) was 10 to 100 nM throughout.

`Cn1nccc1Nc1cn([C@H]2C[C@H](CNc3ccc4c(c3)C(=O)N(C3CCC(=O)NC3=O)C4=O)C2)nc1C1CC1` (stereo partly drawn) [GS-784, 5-(((Trans-3-(3-cyclopropyl-4-((1-methyl-1H-pyrazol-5-yl)amino)-1H-pyrazol-1-yl)cyclobutyl)methyl)amino)-2-(2,6-dioxopiperidin-3-yl)isoindoline-1,3-dione]: the pIC50 in the assay with MV4;11 cells (setting [1]) and in the assay on MOLM-13 cells (setting [3]) was 6.00 to 7.00 throughout. Moreover, the IC50 in the assay with MV4;11 cells (setting [2]) lay in the range of 10 to 100 nM; in the assay on MOLM-13 cells (setting [4]) it was 100 to 1000 nM.

As to `N[C@H]1C[C@@H](n2cc3cnc(-c4cn([C@H]5C[C@H](CNc6ccc7c(c6)C(=O)N(C6CCC(=O)NC6=O)C7=O)C5)nc4C4CC4)cc3n2)C1` (stereo partly drawn) [GS-785, 5-(((Trans-3-(4-(2-(cis-3-aminocyclobutyl)-2H-pyrazolo[4,3-c]pyridin-6-yl)-3-cyclopropyl-1H-pyrazol-1-yl)cyclobutyl)methyl)amino)-2-(2,6-dioxopiperidin-3-yl)isoindoline-1,3-dione], the pIC50 with MV4;11 cells (setting [1]) was greater than 8.00; in the assay on MOLM-13 cells (setting [3]), 7.00 to 8.00. Besides, the IC50 with MV4;11 cells (setting [2]) and with MOLM-13 cells (setting [4]) was less than 10 nM in each case.

Take `N[C@H]1C[C@H](n2cc3cnc(-c4cn([C@H]5C[C@H](CNc6ccc7c(c6)C(=O)N(C6CCC(=O)NC6=O)C7=O)C5)nc4C4CC4)cc3n2)C1` (stereo partly drawn) [GS-786, 5-(((Trans-3-(4-(2-(trans-3-aminocyclobutyl)-2H-pyrazolo[4,3-c]pyridin-6-yl)-3-cyclopropyl-1H-pyrazol-1-yl)cyclobutyl)methyl)amino)-2-(2,6-dioxopiperidin-3-yl)isoindoline-1,3-dione]: the pIC50 in the assay on MV4;11 cells (setting [1]) is greater than 8.00; with MOLM-13 cells (setting [3]), 7.00 to 8.00. The IC50 with MV4;11 cells (setting [2]) and with MOLM-13 cells (setting [4]) was less than 10 nM each time.

Consider `Cc1nc(-c2cn([C@H]3C[C@H](COc4ccc5c(c4)CN(C4CCC(=O)NC4=O)C5=O)C3)nc2C2CC2)ccc1F` (stereo partly drawn) [GS-787, 3-(5-((Trans-3-(3-cyclopropyl-4-(5-fluoro-6-methylpyridin-2-yl)-1H-pyrazol-1-yl)cyclobutyl)methoxy)-1-oxoisoindolin-2-yl)piperidine-2,6-dione], for which the pIC50 in the assay on MV4;11 cells (setting [1]) and with MOLM-13 cells (setting [3]) was less than 6.00 each time.

With `O=C1CCC(N2Cc3cc(NC[C@H]4C[C@H](n5cc(-c6ncc(F)c7cccnc67)c(C6CC6)n5)C4)ccc3C2=O)C(=O)N1` (stereo partly drawn) [GS-788, 3-(5-(((Trans-3-(3-cyclopropyl-4-(5-fluoro-1,7-naphthyridin-8-yl)-1H-pyrazol-1-yl)cyclobutyl)methyl)amino)-1-oxoisoindolin-2-yl)piperidine-2,6-dione], the pIC50 with MV4;11 cells (setting [1]) and with MOLM-13 cells (setting [3]) was greater than 8.00 throughout. The IC50 in the assay on MV4;11 cells (setting [2]) and in the assay on MOLM-13 cells (setting [4]) was less than 10 nM throughout. For the same molecule, the “small molecule-mediated targeted degradation of GSPT1” value at GSPT1 is reported as “targeted degradation of GSPT1”.

For `O=C1CCC(N2C(=O)c3ccc(NC[C@H]4C[C@H](n5cc(-c6cc7nn([C@H]8CC[C@H](O)CC8)cc7cn6)c(C6CC6)n5)C4)cc3C2=O)C(=O)N1` (stereo partly drawn) [GS-789, 5-(((Trans-3-(3-cyclopropyl-4-(2-(trans-4-hydroxycyclohexyl)-2H-pyrazolo[4,3-c]pyridin-6-yl)-1H-pyrazol-1-yl)cyclobutyl)methyl)amino)-2-(2,6-dioxopiperidin-3-yl)isoindoline-1,3-dione], the pIC50 with MV4;11 cells (setting [1]) and in the assay with MOLM-13 cells (setting [3]) was greater than 8.00 each time. In addition, the IC50 in the assay on MV4;11 cells (setting [2]) and in the assay with MOLM-13 cells (setting [4]) was less than 10 nM throughout.

With `Cn1cc2c(-c3cn([C@H]4C[C@H](CNc5ccc6c(c5)C(=O)N(C5CCC(=O)NC5=O)C6=O)C4)nc3C3CC3)ncc(F)c2n1` (stereo partly drawn) [GS-790, 5-(((Trans-3-(3-cyclopropyl-4-(7-fluoro-2-methyl-2H-pyrazolo[4,3-c]pyridin-4-yl)-1H-pyrazol-1-yl)cyclobutyl)methyl)amino)-2-(2,6-dioxopiperidin-3-yl)isoindoline-1,3-dione], the pIC50 with MV4;11 cells (setting [1]) was greater than 8.00; in the assay with MOLM-13 cells (setting [3]), 7.00 to 8.00. In addition, the IC50 with MV4;11 cells (setting [2]) and in the assay with MOLM-13 cells (setting [4]) was less than 10 nM each time.

As for `CC(C)n1ncc2c(-c3cn([C@H]4C[C@H](CNc5ccc6c(c5)C(=O)N(C5CCC(=O)NC5=O)C6=O)C4)nc3C3CC3)ncc(F)c21` (stereo partly drawn) [GS-791, 5-(((Trans-3-(3-Cyclopropyl-4-(7-fluoro-1-isopropyl-1H-pyrazolo[4,3-c]pyridin-4-yl)-1H-pyrazol-1-yl)cyclobutyl)methyl)amino)-2-(2,6-dioxopiperidin-3-yl)isoindoline-1,3-dione], the IC50 in the assay on MV4;11 cells (Homo sapiens, MV4-11, 72 h, 11 IC50 (nM)) is less than 10 nM; with MV4;11 cells (11 IC50 (nM) + 10 nM Gil, MV4;11 cells, with 10 nM gilteritinib, three days), less than 10 nM; with MOLM-13 cells (Homo sapiens, MOLM-13, 72 h, read-out: MOLM-13 IC50 (nM)) it was 10 to 100 nM; in the assay on MOLM-13 cells (read-out: MOLM-13 IC50 (nM) + 10 nM Gil, MOLM-13 cells, with gilteritinib, three days) it was 10 to 100 nM.
